# Assay results: patent US20220144853A1, “IMIDAZOLINE DERIVATIVES AS CXCR4 MODULATORS” (Université de Paris, priority 2019, published 2022)
# Counter-ions that a name gives are not always drawn.
# How the values were obtained:
# IL-10 = test: Cytokine production by R848-activated PBMCs, LEGENDplex Human Inflammation panel 1: IL-10; assay type: cell-based; settings: Homo sapiens, PBMC, PBMCs from 2 healthy donors, R848 overnight
# Method: (§1) 2) The PBMCs used herein were prepared as described in part A “immune cells preparation”, section 2) above. PBMCs were seeded at 4.10^6/mL. […] Cells were then stimulated with the TLR7/8 agonist resiquimod—R848 (Sigma-Aldrich, MO, USA) at 5 μg/mL.
# (§2) Cytokine expression levels were assessed using LEGENDplex Human inflammation panel 1 Kit (BioLegend, California, USA), which is a bead-based multiplex assay, using fluorescence-encoded beads. […] First, supernatants of R848-stimulated PBMCs were harvested after 24 h of stimulation and frozen at −20° C. for storage. Supernatants were dispensed into a 96-well V-bottom plate. Protocol pursued as per manufacturer recommendations (Manual for BioLegend LEGENDplex, Multi-Analyte Flow Assay Kit, Human Inflammation Panel 1, version 750000393_R01).
# [1] = system: IFN production by activated PBMCs; test: IFN production by R848-activated PBMCs from healthy donors, twINNE reporter cell line; assay type: cell-based, human; settings: Homo sapiens, PBMC, means of two results over 2 healthy donors, R848 5 μg/mL, IT1t: mean over all experiments, read-out: IC50 of anti-inflammatory activity (IFN production)
# Procedure, shortened: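 Human PBMCs (4.10^6/mL, RPMI/10% FBS, 37° C) stimulated with R848 at 5 μg/mL; supernatants collected after 24 h. Functional IFN measured on twINNE cells (ISRE-driven luciferase reporter) after 24 h culture by bioluminescence; IC50 from variable-slope dose-response fits.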
# TNF-α = test: Cytokine production by R848-activated PBMCs, LEGENDplex Human Inflammation panel 1: TNF-α; assay type: cell-based; settings: Homo sapiens, PBMC, PBMCs from 2 healthy donors, R848 overnight
# Method: as §1, §2
# IL-18 = test: Cytokine production by R848-activated PBMCs, LEGENDplex Human Inflammation panel 1: IL-18; assay type: cell-based; settings: Homo sapiens, PBMC, PBMCs from 2 healthy donors, R848 overnight
# Method: as §1, §2
# IL-23 = test: Cytokine production by R848-activated PBMCs, LEGENDplex Human Inflammation panel 1: IL-23; assay type: cell-based; settings: Homo sapiens, PBMC, PBMCs from 2 healthy donors, R848 overnight
# Method: as §1, §2
# [2] = system: IFN production by activated immune cells (PBMC) from lupus patients; test: IFN production by R848-activated PBMC from lupus patients, STING-37 reporter cell line; assay type: cell-based, human; settings: 10 μM, PBMC from three SLE patients, FIG. 2
# Method: Material from Juvenile Dermatomyositis and Lupus patients were obtained from Necker Hospital, Paris, France or from Imagine Institute, Paris, France. The study was approved by the Conité des Protection des Personnes (ID-RCB/EUDRACT: 2014-A01017-40 and 2018-A01358-47) in France.
# In vitro experiments were performed using human peripheral blood mononuclear cells (PBMCs) isolated by density centrifugation from peripheral blood leukocyte separation medium (Cambrex, Gaithersburg, Md.).
# PBMCs were cultured in RPMI 1640 (Invitrogen, Gaithersburg, Md.) (R10) containing 10% heat-inactivated fetal bovine serum, 100 U/mL Penicilium and 100 μg/mL Streptomycin (1% Pen-Strep) and 1 mM glutamine (Hyclone, Logan, Utah).
# 1) The PBMCs used herein were prepared as described in part A “immune cells preparation”, section 1) above. PBMCs were seeded at 2.10^6/mL. […] Cells were then stimulated with the TLR7/8 agonist resiquimod—R848 (Invivogen) at 5 μg/mL. […]
# 1) To quantify the secretion of functional IFN, a biological assay based on a stable cell line where luciferase reporter gene is controlled by five Interferon-Stimulated Response Elements (STING37 cell line) was used. […] After 24 h of culture, luciferase activity was determined by adding 50 μL of Bright-Glo reagents (Promega) to culture wells and measuring bioluminescence with a luminometer.
# IFN-γ = test: Cytokine production by R848-activated PBMCs, LEGENDplex Human Inflammation panel 1: IFN-γ; assay type: cell-based; settings: Homo sapiens, PBMC, PBMCs from 2 healthy donors, R848 overnight
# Method: as §1, §2
smiles,measurement,setting,value
"CC1(C)CN2C(CSC3=NCC(C)(C)N3)=CSC2=N1 [Example 2, 3-(((5,5-dimethyl-4,5-dihydro-1H-imidazol-2-yl)thio)methyl)-6,6-dimethyl-5,6-dihydroimidazo[2,1-b]thiazole dihydrochloride]",IC50,IL-10,9.1 µM
same,IC50,[1],10 to 31 µM
same,IC50,TNF-α,46 µM
same,IC50,IL-18,13 µM
same,IC50,IL-23,4.7 µM
same,IFN production by activated PBMCs,[2],level similar to the one of unstimulated negative controls
same,IC50,IFN-γ,26 µM
